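Cultured in 96-well plates, cells were exposed to test compound for 48 hours across five concentrations. GI50 is the concentration that inhibits growth by half.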 Calls of active or inactive are those of the source. No stated cut-off is given here; in the data, active = GI50 up to about 1.1 µM and inactive = higher.

Some test systems named below: U-251; SW-620; NCI-H460; SNB-19; 786-0; HT-29; M19-MEL; A498; HCT-15; UACC-62; ACHN; OVCAR-4; SF-295; MOLT-4; NCI-H226; EKVX; CCRF-CEM; UACC-257; SR; NCI-H522.
Holding throughout (assay): NCI-60 cell line screen, 48 h

For the compound `CSC1CC2C(CC1(C)O)C2(C)C` (configuration not stated), the GI50 with U-251, in the assay with SW-620, with NCI-H460, with SNB-19, in the assay on 786-0 and with HT-29 was > 100 µM (inactive) in each case. The GI50 with M19-MEL is > 100 µM (inactive); with A498, > 100 µM (inactive); in the assay on HCT-15, more than 100 µM; in the assay on UACC-62 it was > 100 µM (inactive); in the assay with ACHN, > 100 µM (inactive); in the assay on OVCAR-4, > 100 µM (inactive).

In the case of `COc1cc([C@@H]2c3cc4c(cc3[C@@H](NC(=O)c3cccc([N+](=O)[O-])c3)C3COC(=O)[C@@H]32)OCO4)cc(OC)c1O` (some centres not stated), the GI50 in the assay on SF-295 is 0.245 µM (active); in the assay on U-251 it was 0.166 µM (active); in the assay on SW-620 it was 0.509 µM (active); in the assay with MOLT-4, 0.0145 µM (active); in the assay with NCI-H226, 0.127 µM (active); with EKVX, 1.25 µM (inactive). Also, the GI50 with NCI-H460 is < 0.01 µM (active); in the assay with SNB-19, 0.366 µM (active); in the assay with 786-0, 0.202 µM (active); with CCRF-CEM, 0.0376 µM (active); with HT-29 it was 1.7 µM (inactive); in the assay on M19-MEL, 2.55 µM (inactive). In addition, the GI50 was 6.18 µM (inactive) in the assay on UACC-257; 1.28 µM in the assay with HCT-15; 0.499 µM (active) in the assay on UACC-62; 0.128 µM (active) in the assay on ACHN; 10.5 µM (inactive) with OVCAR-4.

As to `Cc1ccccc1C(C#N)/C(=N/NC(N)=S)C(=O)Nc1c(C)cccc1C` (configuration not stated), the GI50 in the assay with SF-295 is > 100 µM (inactive); with U-251 it was > 100 µM (inactive); with SW-620, > 100 µM (inactive); in the assay on MOLT-4, 88.1 µM (inactive); in the assay on NCI-H226, > 100 µM (inactive); in the assay on EKVX, > 100 µM (inactive). The GI50 is > 100 µM (inactive) in the assay on NCI-H460; > 100 µM (inactive) with SNB-19; > 100 µM (inactive) with 786-0; > 100 µM (inactive) with CCRF-CEM; > 100 µM (inactive) in the assay on HT-29; 80 µM (inactive) with M19-MEL. The GI50 with UACC-257 was > 100 µM (inactive); with UACC-62 it was 33.4 µM (inactive); in the assay on ACHN, > 100 µM (inactive); with OVCAR-4 it was > 100 µM (inactive).

As to `O=c1[nH]nc(-c2cccc([N+](=O)[O-])c2)[nH]1`, the GI50 in the assay on SF-295, in the assay on U-251, in the assay on SW-620, in the assay with SR, in the assay with MOLT-4 and in the assay with NCI-H226 was > 100 µM (inactive) each time. The GI50 was 8.34 µM (inactive) in the assay on EKVX; > 100 µM (inactive) in the assay with NCI-H460; > 100 µM (inactive) in the assay on SNB-19; > 100 µM (inactive) in the assay on 786-0; > 100 µM (inactive) in the assay on CCRF-CEM; > 100 µM (inactive) in the assay with HT-29. Moreover, the GI50 is > 100 µM (inactive) with UACC-257; > 100 µM (inactive) in the assay with A498; more than 100 µM in the assay with HCT-15; > 100 µM (inactive) in the assay on UACC-62; > 100 µM (inactive) in the assay with ACHN; > 100 µM (inactive) in the assay with NCI-H522. For the same compound, the GI50 in the assay on OVCAR-4 is > 100 µM (inactive).

For `Cc1cc2c(=O)cc(-c3ccc(C(F)(F)F)cc3)oc2c(C(=O)O)c1C`, the GI50 with SF-295, with U-251, in the assay on SW-620, with MOLT-4, in the assay on NCI-H226 and in the assay on EKVX was > 100 µM (inactive) each time. In addition, the GI50 in the assay on NCI-H460, in the assay with SNB-19, with 786-0, in the assay on CCRF-CEM, in the assay with HT-29 and in the assay on M19-MEL was > 100 µM (inactive) each time. Moreover, the GI50 with UACC-257 was > 100 µM (inactive); in the assay on HCT-15 it was more than 100 µM; in the assay on UACC-62 it was > 100 µM (inactive); in the assay on ACHN, > 100 µM (inactive); with NCI-H522 it was > 100 µM (inactive); in the assay on OVCAR-4, > 100 µM (inactive).

Source of the values: ChEMBL document CHEMBL1201862, “PubChem BioAssay data set” (2004).
